Data taken from patent US4008227A, “Cephalosporins” (Takeda Chemical Industries, Ltd., priority 1973, dated 1977).
In brackets after ≈: the same amount, converted by molar mass. Where a name gives a salt, the structure may show the parent alone.

Key:
Assay type in all cases: cell-based
[1] = tested on: Staphylococcus aureus 209P; experiment: MIC against Staphylococcus aureus 209P
Escherichia coli NIHJ = experiment: MIC against Escherichia coli NIHJ
[2] = tested on: Staphylococcus aureus 1840; experiment: MIC against Staphylococcus aureus 1840
Klebsiella pneumoniae = experiment: MIC against Klebsiella pneumoniae
[3] = tested on: Staphylococcus aureus No. 87; experiment: MIC against Staphylococcus aureus No. 87
[4] = tested on: Bucillus subtilis PCI 219; experiment: MIC against Bucillus subtilis PCI 219
Sarcina lutea PCI 1001 = experiment: MIC against Sarcina lutea PCI 1001; conditions: Micrococcus luteus, PCI1001
Proteus vulgaris Eb51 = experiment: MIC against Proteus vulgaris Eb51
Proteus mirabilis Eb59 = experiment: MIC against Proteus mirabilis Eb59
Proteus vulgaris = experiment: MIC against Proteus vulgaris (strain not given)
Proteus morganii Eb53 = experiment: MIC against Proteus morganii Eb53; conditions: Morganella morganii

MIC [1] | MIC (Escherichia coli NIHJ) | MIC [2] | MIC (Klebsiella pneumoniae) | MIC [3] | MIC [4] | MIC (Sarcina lutea PCI 1001) | MIC (Proteus vulgaris Eb51) | MIC (Proteus mirabilis Eb59) | MIC (Proteus vulgaris) | MIC (Proteus morganii Eb53) | SMILES
< 0.78 µg/mL | 1.56 µg/mL (≈ 3.25 µM) | 1.56 µg/mL (≈ 3.25 µM) | 1.56 µg/mL (≈ 3.25 µM) | – | – | – | – | – | – | – | Cc1ccc(SCC2=C(C(=O)O)N3C(=O)C(NC(=O)C[n+]4cc([O-])on4)C3SC2)n[n+]1[O-] (stereo not shown) [Example 11, 7-[2'-(3'-sydnone)acetamido]-3-[6"-(3"-methylpyridazinyl)thiomethyl]-3-cephem-4-carboxylic acid 2"-oxide]
< 0.78 µg/mL | – | 1.56 µg/mL | 1.56 µg/mL | – | – | – | – | – | – | – | COc1ccc(SCC2=C(C(=O)O)N3C(=O)C(NC(=O)C[n+]4cc([O-])on4)C3SC2)[n+]([O-])n1 (stereo not shown) [Example 13, 7-[2'-(3'-sydnone)acetamido]-3-[6"-(3"-methoxypyridazinyl)thiomethyl]-3-cephem-4-carboxylic acid 1"-oxide sodium salt]
0.1 µg/mL | 0.5 µg/mL | – | – | 5 µg/mL | < 0.01 µg/mL | 0.2 µg/mL | 1 µg/mL | 5 µg/mL | – | – | Cc1ccc(SCC2=C(C(=O)O)N3C(=O)C(NC(=O)[C@H](O)c4ccccc4)C3SC2)n[n+]1[O-] (single isomer, unassigned) [Example 1, 7-[D-(-)-mandelamido]-3-[6'-(3'-methylpyridazinyl)thiomethyl] -3-cephem-4-carboxylic acid 2'-oxide sodium salt]
< 0.78 µg/mL | 1.56 µg/mL | < 1.56 µg/mL | < 0.78 µg/mL | – | – | – | – | – | 3.12 µg/mL | 25 µg/mL | O=C(O)C1=C(CSc2ccc(Cl)n[n+]2[O-])CSC2C(NC(=O)[C@H](O)c3ccccc3)C(=O)N12 (single isomer, unassigned) [Example 7, 7-[D-(-)-mandelamido]-3-[6'-(3'-chloropyridazinyl)thiomethyl]-3-cephem-4-carboxylic acid 1'-oxide sodium salt]
< 0.78 µg/mL | 1.56 µg/mL | 1.56 µg/mL | 1.56 µg/mL | – | – | – | – | – | – | – | O=C(C[n+]1cc([O-])on1)NC1C(=O)N2C(C(=O)O)=C(CSc3ccc(Cl)n[n+]3[O-])CSC12 (stereo not shown) [Example 12, 7-[2'-(3'-sydnone)acetamido]-3[6"-(3"-chloropyridazinyl)-thiomethyl]-3-cephem-4-carboxylic acid 1"-oxide sodium salt]
< 0.78 µg/mL | 1.56 µg/mL | 1.56 µg/mL | 1.56 µg/mL | – | – | – | – | – | – | – | COc1ccc(SCC2=C(C(=O)O)N3C(=O)C(NC(=O)[C@H](O)c4ccccc4)C3SC2)[n+]([O-])n1 (single isomer, unassigned) [Example 6, 7-[D-(-)-mandelamido]-3-[6'-(3'-methoxypyridazinyl)thiomethyl]-3-cephem-4-carboxylic acid 1'-oxide sodium salt]
